Here are results for one compound from ChEMBL document CHEMBL4680227, “Design and synthesis of selective degraders of EGFR mutant” (Eur J Med Chem, 2020).

In test [1] the target is Epidermal growth factor receptor (Homo sapiens, UniProt P00533). The test can be described thus: Induction of EGFR degradation in human A431 cells by Western blot analysis. The conditions noted are these: a-431. On the technique in general: In western blotting, separated proteins are transferred to a membrane and probed.
Test [2] addresses Epidermal growth factor receptor (Homo sapiens, UniProt P00533, T790M/L858R). The test is described as follows: Induction of EGFR L858R/T790M mutant degradation in human NCI-H1975 cells by Western blot analysis.

The term DC50 denotes the concentration at which degradation of the target reaches its halfway point.

The structures appear in SMILES notation.

Chain of Epidermal growth factor receptor (Homo sapiens, UniProt P00533) (P00533 whole entry): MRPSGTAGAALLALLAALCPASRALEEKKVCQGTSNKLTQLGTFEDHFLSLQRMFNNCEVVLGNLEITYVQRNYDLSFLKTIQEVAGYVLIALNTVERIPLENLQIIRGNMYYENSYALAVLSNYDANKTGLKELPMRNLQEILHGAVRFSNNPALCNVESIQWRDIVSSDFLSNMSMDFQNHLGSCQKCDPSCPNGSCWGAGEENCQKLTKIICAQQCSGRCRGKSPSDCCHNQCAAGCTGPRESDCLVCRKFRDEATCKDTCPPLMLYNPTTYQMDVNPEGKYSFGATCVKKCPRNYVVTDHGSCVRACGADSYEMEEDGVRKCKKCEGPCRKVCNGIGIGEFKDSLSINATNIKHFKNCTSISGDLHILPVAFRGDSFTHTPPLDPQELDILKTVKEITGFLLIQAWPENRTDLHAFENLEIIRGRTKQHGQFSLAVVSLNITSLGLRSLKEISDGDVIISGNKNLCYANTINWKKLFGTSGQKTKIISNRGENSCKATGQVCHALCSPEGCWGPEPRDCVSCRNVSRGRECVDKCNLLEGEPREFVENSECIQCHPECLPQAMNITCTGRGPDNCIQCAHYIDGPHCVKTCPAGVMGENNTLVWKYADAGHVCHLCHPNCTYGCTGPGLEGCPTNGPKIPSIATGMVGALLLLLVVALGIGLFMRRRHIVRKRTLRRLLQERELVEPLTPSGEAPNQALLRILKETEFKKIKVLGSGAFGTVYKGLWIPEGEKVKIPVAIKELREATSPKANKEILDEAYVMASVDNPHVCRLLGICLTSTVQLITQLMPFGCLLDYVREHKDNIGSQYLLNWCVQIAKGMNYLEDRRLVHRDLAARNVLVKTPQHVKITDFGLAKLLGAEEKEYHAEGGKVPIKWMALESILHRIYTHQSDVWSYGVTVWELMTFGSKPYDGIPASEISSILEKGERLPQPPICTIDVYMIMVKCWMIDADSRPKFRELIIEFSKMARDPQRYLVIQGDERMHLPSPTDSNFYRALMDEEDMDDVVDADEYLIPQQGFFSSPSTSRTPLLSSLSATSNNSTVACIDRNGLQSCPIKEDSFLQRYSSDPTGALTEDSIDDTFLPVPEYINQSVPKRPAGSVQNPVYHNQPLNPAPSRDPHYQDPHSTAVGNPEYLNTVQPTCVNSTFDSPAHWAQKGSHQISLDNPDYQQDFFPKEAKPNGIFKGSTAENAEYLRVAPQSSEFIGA
Chain of Epidermal growth factor receptor (Homo sapiens, UniProt P00533, T790M/L858R) (P00533 25-1210 T790M/L858R limits assumed): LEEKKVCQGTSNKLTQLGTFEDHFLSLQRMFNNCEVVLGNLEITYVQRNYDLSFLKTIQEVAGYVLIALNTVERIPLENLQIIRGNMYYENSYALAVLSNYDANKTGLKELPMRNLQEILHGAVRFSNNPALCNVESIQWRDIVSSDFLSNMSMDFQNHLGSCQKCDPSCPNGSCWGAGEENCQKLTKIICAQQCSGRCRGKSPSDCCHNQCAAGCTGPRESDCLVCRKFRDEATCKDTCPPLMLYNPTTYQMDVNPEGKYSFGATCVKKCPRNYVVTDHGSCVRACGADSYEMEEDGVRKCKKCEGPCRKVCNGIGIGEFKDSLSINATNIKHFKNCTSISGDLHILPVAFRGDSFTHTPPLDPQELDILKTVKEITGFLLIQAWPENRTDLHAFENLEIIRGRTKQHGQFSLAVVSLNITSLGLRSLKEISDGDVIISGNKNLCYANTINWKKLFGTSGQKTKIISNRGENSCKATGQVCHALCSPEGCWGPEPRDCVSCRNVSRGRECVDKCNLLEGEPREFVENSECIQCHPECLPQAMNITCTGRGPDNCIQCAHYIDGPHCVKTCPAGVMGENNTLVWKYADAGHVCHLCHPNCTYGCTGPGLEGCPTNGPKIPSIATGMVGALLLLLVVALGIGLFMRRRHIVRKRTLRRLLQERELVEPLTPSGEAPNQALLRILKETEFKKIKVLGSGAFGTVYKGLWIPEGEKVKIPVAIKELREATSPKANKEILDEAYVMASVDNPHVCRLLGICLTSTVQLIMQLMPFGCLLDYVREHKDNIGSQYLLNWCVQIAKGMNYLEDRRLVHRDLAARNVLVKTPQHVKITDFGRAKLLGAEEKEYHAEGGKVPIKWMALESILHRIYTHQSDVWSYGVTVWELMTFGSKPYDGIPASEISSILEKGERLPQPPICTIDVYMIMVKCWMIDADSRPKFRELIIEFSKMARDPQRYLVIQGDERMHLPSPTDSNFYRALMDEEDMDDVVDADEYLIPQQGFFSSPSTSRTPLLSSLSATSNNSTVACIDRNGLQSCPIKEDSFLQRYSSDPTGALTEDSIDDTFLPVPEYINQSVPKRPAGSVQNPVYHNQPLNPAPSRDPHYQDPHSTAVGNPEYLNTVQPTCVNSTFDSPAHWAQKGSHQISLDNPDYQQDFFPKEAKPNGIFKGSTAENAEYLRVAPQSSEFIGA

Turning to `C=CC(=O)Nc1cccc(-n2c(=O)cc(C)c3cnc(Nc4ccc(N5CCN(C)CC5)cc4OC)nc32)c1`, the DC50 in test [1] and in test [2] was above 2000 nM each time.
